Data set [1] addresses T1, apo-transferrin (apoTf) (Homo sapiens, UniProt P02787).
T1 construct: purchased Sigma-Aldrich T2036
Kind of data set: Kinetics of the reaction with apoTf followed by UV-vis spectrophotometry. The format is binding. The settings on record: pH 7.40 (InCl3: 2 equiv.). As to the method:
Firstly, the kinetics of the reaction between apoTf and InCl3 and the complexes was studied by UV–vis spectrophotometry. The reaction of 2 equiv. […] At the same time Harris et al. have observed slow equilibration with InCl3, that was accelerated (to 6 h) in the presence of NTA [18]. In the case of InQ3 and InD3, the progress of apoTf binding could be followed through the ligand bands of the complexes. […] The Ga(III)-analogue GaQ3 interacted within 1 h with apoTf under similar conditions.
For (apo)Tf containing samples, complex concentrations were 20 μM and 0–2.5 equiv. protein was added. Reference spectra for the complexes, ligands and protein were recorded as well. Samples prepared with blood serum contained three-fold diluted serum and 10 μM metal complexes. UV–vis spectra presented in this paper for complexes InD3 or InQ3 are subtracted by the spectrum of reference protein (HSA (apo)Tf or serum) sample in all cases in favour of the better interpretation of the results.

Data set [2] has as its target T1, apo-transferrin (apoTf). The following applies: in the presence of NTA; cited from earlier work.
Data set [3] in a line: pH-potentiometric titrations: proton dissociation constants of the ligands and overall stability constants of their In(III) complexes. The settings on record: pH-pot, T = 25.0 °C, I = 0.20 M (KCl); for logβ [InL2] / logβ [InL3] / logβ [InL]: In(III) complex of the ligand L; for pKa: water. The format is physicochemical. How it is done: (§1) To characterize the solution stability of the In(III) complexes, pH-potentiometric and UV–vis spectrophotometric titrations were performed in water in the presence of 0.20 M chloride ions. However, stability constants for the HQ complexes could be obtained only by the latter method due to their much worse water solubility compared to the other compounds. HQS was involved as a water-soluble analogue of HQ bearing identical coordination mode. Stability constants of deferiprone were also determined by both methods in the present work to validate our experimental setup and data treatment, since the In(III) ‒ deferiprone system was already characterized by Orvig and collaborators. The hydrolysis of In(III) and its interaction with chloride ions were taken into consideration, and stability constants of the hydoxido and chlorido complexes were utilized for our calculations. As a first step, the proton dissociation constants (Ka) were determined for the ligands (Table 1) showing good agreement with the previously published data (see Table 1). The overall stability constants obtained for the octahedral In(III)-deferiprone complexes by both methods (Table 1) are fairly similar to those reported at 150 mM NaCl. […] Complexes with the same stoichiometry were also formed with the O,N-donor containing HQS (Table 1). […] Stability constants for the HQ complexes (Table 1) were determined by the deconvolution of UV–vis spectra recorded at various pH values (Fig. 1a), and the computed molar absorbance spectra for the individual ligand and complex species are shown in Fig. 1b. Due to the lack of d-d or charge transfer bands, the molar absorbance spectra of the complexes represent similar λmax values to that of the completely deprotonated form of the ligand; although, the shape of the spectra is different and is quite similar to that was found for the Ga(III) complexes.
The pH-potentiometric measurements for the determination of the proton dissociation constants of the ligands (HQS, maltol, deferiprone) and the overall stability constants of their In(III) complexes were carried out at 25.0 ± 0.1 °C in water at an ionic strength of 0.20 M (KCl, Sigma-Aldrich). The titrations were performed with a carbonate-free KOH solution of known concentration (0.20 M). An Orion 710A pH-meter equipped with a Metrohm combined electrode (type 6.0234.100) and a Metrohm 665 Dosimat burette were used for the pH-potentiometric measurements. […] The average water ionization constant, pKw, is 13.76 ± 0.01, which corresponds well to literature data. The reproducibility of the titration points included in the calculations was within 0.005 pH units. The pH-potentiometric titrations were performed in the pH range 2.0–11.5. The initial volume of the samples was 10.0 mL, and the ligand concentration was 3 mM and metal ion-to-ligand ratios of 1:1 to 1:4 were used. The fitting of the titration curves was less than 0.01 mL. (The fitting parameter is the average difference between the experimental and calculated titration curves expressed in the volume of the titrant.) Samples were deoxygenated by bubbling purified argon through them for ca. 10 min prior to the measurements. The proton dissociation constants of the ligands, the stoichiometry and the overall stability constants of the complexes were determined with the computer program HYPERQUAD [60]. Overall stability constants of the complexes (β(MpLqHr)) is defined for the general equilibrium pM + qL + rH ⇌ MpLqHr as β (MpLqHr) = [MpLqHr]/[M]^p[L]^q[H]^r where M denotes the metal ion and L the completely deprotonated ligand. Hydrolysis constants for In(III) and stability constants for the In(III)-chlorido complexes (Table 1) are taken from references. The calculations were always made from the experimental titration data measured in the absence of any precipitate in the solution.

A short description of data set [4]: UV-vis spectrophotometric titrations: proton dissociation constants of the ligands and overall stability constants of their In(III) complexes. The settings on record: T = 25.0 °C, I = 0.20 M (KCl); for logβ [InL2] / logβ [InL3] / logβ [InL]: In(III) complex of the ligand L; for pKa: water. The format is physicochemical. How it is done: as §1
Proton dissociation of the ligands (HQ, HQS, maltol, deferiprone) and overall stability constants and the individual spectra of their complexes were calculated with the computer program PSEQUAD [43]. The spectrophotometric titrations were performed on samples of the ligands with or without In(III); the concentration of the ligands was 0.10 mM, and the metal-to-ligand ratios were 1:1, 1:2, 1:3 and 1:4 over the pH range used in pH-potentiometric measurements at 25.0 ± 0.1 °C at an ionic strength of 0.20 M (KCl).

Data set [5] can be described thus: pM* / pM values computed at pH 7.4 from stability constants. The format is physicochemical. The settings on record: for pIn (pM = –log[M(III)]): Table S1, does not account for hydrolysis of the metal ion; for pGa* (−log([M] + [M(OH)(1–4)])): pH 7.4, 1 μM Ga(III), computed from stability constants of Ref. 27 (deferiprone) or Ref. 29 (maltol, HQS, HQ); for pGa* (−log([M] + [M(OH)(1–4)])) / pIn* (−log([M] + [M(OH)(1–4)])): 10 μM ligand; for pIn* (−log([M] + [M(OH)(1–4)])): pH 7.4, 1 μM In(III). How it is done:
To compare the In(III) binding ability of the studied four ligands, pIn* (= negative decadic logarithm of the equilibrium concentration of the unbound metal species) values were calculated at pH 7.4 using the determined stability constants (Table 1).
Table S1. Calculated pM values for the studied In(III) complexes and their Ga analogues,
a Computed on the basis of stability constants taken from Ref. [27]. b Computed on the basis of stability
constants taken from Ref. [29] […]

For another data set, the target named is T2, apoTf (Homo sapiens, UniProt P02787).
T2 construct: purchased Sigma-Aldrich T2036
The data set is described as follows: Interaction with (apo)Tf: ligand displacement and binding of the intact complex (UV-vis, fluorescence, ultrafiltration). The following applies: UV–vis and fluorescence, pH 7.40. How it is done:
Therefore, UV–vis and fluorescence emission spectra of InQ3 were recorded in the presence of increasing amounts of apoTf (Fig. 5a, b). After a short initial phase, the absorbance band of InQ3 is reduced gradually by the addition of the protein, while the development of the new band at lower wavelengths (at ca. 310 nm) refers to the liberation of HQ. Namely, there is a competition for In(III) ion between the ligand and the iron-binding sites of apoTf. Absorbance values depicted at 370 nm and 310 nm (Fig. 5c) saturate roughly to the corresponding values of the free ligand and outline a sigmoidal shape. Fluorescence intensity of the same sample set (Fig. 5b, d) was enhanced and moderately blue shifted (from λmax = 540 nm to 532 nm) until the addition of ca. 0.2 equiv. apoTf. […] Then, by the addition of more apoTf, intensities decreased and λmax shifted further to shorter wavelengths (527 nm). […] Based on this and the results of apoTf quenching (vide supra) protein binding of the non-dissociated complex is presumed. This is further supported by fluorescence lifetime measurements; where new lifetime components τ3 = 4.7 ± 0.2 ns and τ4 = 13.8 ± 0.4 ns appeared for InQ3 in the presence of 0.1 – 0.3 equiv. apoTf (after 1 min waiting time). […] Here, the sigmoid shape of the UV–vis absorbance was seen again (Fig. S5) and the shifted inflection point in comparison to the titration with apoTf underlines the lower In(III) binding capacity of Tf. […]
In the case of InD3, the absorbance bands of the metal complex and apoTf overlap in great extent, however, spectra can be deconvoluted to the spectra of InD3, deferiprone and apoTf (see Fig S6 for details), and molar fractions of the respective species can be calculated (Fig. 6). Ultrafiltration experiments were carried out as well for the InD3 – apoTf system and the non-protein bound LMM fractions were analyzed by UV–vis spectrophotometry (Fig. 6). […] The complex dissociated in line with the addition of apoTf and a practically quantitative displacement of deferiprone seems to take place by the addition of ca. 0.5 equiv. apoTf. […]

On the set-up of data set [6]: method as in PMID 25398250. The following applies: same LMM competitors in tenfold excess, investigated separately; cited from earlier work.
The target in data set [7] is T3, human serum albumin (HSA) (Homo sapiens, UniProt P02768).
T3 construct: purchased Sigma-Aldrich A8763
On the set-up: method as in PMID 25398250. The settings on record: cited from earlier work.

Data on 6 compounds can be found in publication PMC8960621, “Solution speciation and human serum protein binding of indium(III) complexes of 8-hydroxyquinoline, deferiprone and maltol” (Journal of Biological Inorganic Chemistry, 2022).

Marks after values point to notes of the source that are not given here.

T1 sequence (P02787 20-698): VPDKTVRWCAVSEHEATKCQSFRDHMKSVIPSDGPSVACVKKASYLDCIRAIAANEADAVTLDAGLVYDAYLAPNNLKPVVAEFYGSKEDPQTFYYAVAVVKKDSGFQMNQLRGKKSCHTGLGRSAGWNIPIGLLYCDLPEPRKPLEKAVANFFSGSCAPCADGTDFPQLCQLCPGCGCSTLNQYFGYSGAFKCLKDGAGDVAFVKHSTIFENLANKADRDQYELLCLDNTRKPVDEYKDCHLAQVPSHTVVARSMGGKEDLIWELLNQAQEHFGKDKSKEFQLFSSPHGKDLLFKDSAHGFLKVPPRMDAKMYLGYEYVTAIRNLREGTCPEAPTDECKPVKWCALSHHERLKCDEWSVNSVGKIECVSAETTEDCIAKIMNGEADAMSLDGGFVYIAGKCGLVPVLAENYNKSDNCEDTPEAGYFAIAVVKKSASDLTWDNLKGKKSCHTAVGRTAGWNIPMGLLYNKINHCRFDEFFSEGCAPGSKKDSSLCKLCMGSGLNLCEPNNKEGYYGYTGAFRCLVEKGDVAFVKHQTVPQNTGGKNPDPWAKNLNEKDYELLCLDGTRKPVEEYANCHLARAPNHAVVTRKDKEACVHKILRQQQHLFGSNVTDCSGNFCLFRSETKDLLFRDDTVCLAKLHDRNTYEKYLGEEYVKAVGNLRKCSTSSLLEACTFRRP
T2 sequence (P02787 20-698): as above
T3 sequence (P02768 25-609): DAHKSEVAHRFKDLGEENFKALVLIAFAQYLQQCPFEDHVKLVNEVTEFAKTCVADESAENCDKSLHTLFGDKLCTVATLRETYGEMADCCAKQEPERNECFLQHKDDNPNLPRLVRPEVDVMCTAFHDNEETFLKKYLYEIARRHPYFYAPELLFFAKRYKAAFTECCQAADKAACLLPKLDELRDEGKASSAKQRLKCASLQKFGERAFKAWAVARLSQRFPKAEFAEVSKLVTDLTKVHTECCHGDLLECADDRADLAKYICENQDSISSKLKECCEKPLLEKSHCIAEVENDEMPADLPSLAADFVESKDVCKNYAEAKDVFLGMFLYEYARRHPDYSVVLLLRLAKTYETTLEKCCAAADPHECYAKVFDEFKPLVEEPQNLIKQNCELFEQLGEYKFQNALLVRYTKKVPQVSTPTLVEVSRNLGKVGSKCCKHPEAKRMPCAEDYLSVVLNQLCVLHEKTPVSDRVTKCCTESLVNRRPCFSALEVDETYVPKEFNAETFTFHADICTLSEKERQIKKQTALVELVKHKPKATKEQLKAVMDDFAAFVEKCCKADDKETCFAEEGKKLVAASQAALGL

`[Cl-].[Cl-].[Cl-].[In+3]` [InCl3, reference compound]: the “time to reach equilibrium in the reaction with apoTf” value at apo-transferrin (apoTf) [1] was “ca. 2 h”. Besides, the “equilibration time with Tf” value on apo-transferrin (apoTf) [2] is listed as 6 h.
For the compound `Cc1occc(=O)c1O` [Maltol, 3-Hydroxy-2-methyl-4H-pyran-4-one], in data set [3], the “logβ [InL2]” value is recorded as 18.59 ± 0.03, the “logβ [InL3]” value was 24.38 ± 0.05 and the “logβ [InL]” value came to 11.03 ± 0.03. Moreover, in data set [3] (read-out: pKa (HL)), the pKa (in general, the pH at which an ionisable group is half protonated) turned out to be 8.47 ± 0.01. In data set [4], the “logβ [InL2]” value turned out to be 18.78 ± 0.03, the “logβ [InL3]” value is on record as 25.04 ± 0.06 and the “logβ [InL]” value was 10.77 ± 0.03. Further, in data set [4] (read-out: pKa (HL)), the pKa was determined as 8.39 ± 0.02. Further, in data set [5], the “pIn (pM = –log[M(III)])” value is reported as 14.31, the “pGa* (−log([M] + [M(OH)(1–4)]))” value is recorded as 6.00^j and the “pIn* (−log([M] + [M(OH)(1–4)]))” value turned out to be 6.01.
For `Oc1cccc2cccnc12` [HQ, 8-Hydroxyquinoline], in data set [4], the “logβ [InL2]” value was 22.87 ± 0.03, the “logβ [InL3]” value worked out at 32.64 ± 0.06 and the “logβ [InL]” value is 13.43 ± 0.06. The pKa in data set [4] (read-out: pKa (H2L)) amounted to 4.9 ± 0.02. Moreover, the pKa in data set [4] (read-out: pKa (HL)) turned out to be 9.63 ± 0.02. For the same compound, in data set [5], the “pIn (pM = –log[M(III)])” value is listed as 16.48, the “pGa* (−log([M] + [M(OH)(1–4)]))” value was 7.86^j and the “pIn* (−log([M] + [M(OH)(1–4)]))” value is on record as 8.18. Besides, the “binding via intermolecular interactions to apoTf (and Tf)” value on apoTf was “can be excluded”.
For the compound `Cc1c(O)c(=O)ccn1C` [Deferiprone, 3-Hydroxy-1,2-dimethylpyridin-4(1H)-one], in data set [3], the “logβ [InL2]” value was 23.50 ± 0.06^ h, the “logβ [InL3]” value is on record as 32.66 ± 0.08^ h and the “logβ [InL]” value is given as 13.67 ± 0.04^ h. In data set [3] (read-out: pKa (H2L)), the pKa came to 3.66 ± 0.01. Moreover, the pKa in data set [3] (read-out: pKa (HL)) was 9.72 ± 0.01. Also, in data set [4], the “logβ [InL2]” value came out at 23.88 ± 0.06, the “logβ [InL3]” value is 33.45 ± 0.03 and the “logβ [InL]” value was found to be 13.72 ± 0.03. In addition, the pKa in data set [4] (read-out: pKa (H2L)) was determined as 3.57 ± 0.02. Further, in data set [5], the “pIn (pM = –log[M(III)])” value is listed as 16.25, the “pGa* (−log([M] + [M(OH)(1–4)]))” value was 8.83^i and the “pIn* (−log([M] + [M(OH)(1–4)]))” value came out at 7.95.
For `O=S(=O)(O)c1ccc(O)c2ncccc12` [HQS, 8-Hydroyquinoline-5-sulfonate], in data set [3], the “logβ [InL2]” value came out at 21.31 ± 0.07, the “logβ [InL3]” value came out at 28.95 ± 0.09 and the “logβ [InL]” value was determined as 12.64 ± 0.05. For the same compound, the pKa in data set [3] (read-out: pKa (H2L)) is 3.89 ± 0.02. In addition, the pKa in data set [3] (read-out: pKa (HL)) was 8.46 ± 0.02. For the same compound, in data set [4], the “logβ [InL2]” value amounted to 21.18 ± 0.06, the “logβ [InL3]” value was 29.66 ± 0.06 and the “logβ [InL]” value is on record as 12.29 ± 0.06. Moreover, the pKa in data set [4] (read-out: pKa (H2L)) was determined as 3.7 ± 0.04. Also, in data set [4] (read-out: pKa (HL)), the pKa is 8.27 ± 0.04. In addition, in data set [5], the “pIn (pM = –log[M(III)])” value is recorded as 16.23, the “pGa* (−log([M] + [M(OH)(1–4)]))” value is on record as 7.92^j and the “pIn* (−log([M] + [M(OH)(1–4)]))” value was 7.93.
With `Cc1occc(=O)c1[O-].Cc1occc(=O)c1[O-].Cc1occc(=O)c1[O-].[Ga+3]` [GaM3, Tris(3-Hydroxy-2-methyl-4H-pyran-4-onato)gallium(III)], in data set [6], the “effect of LMM competitors on the complex” value was “practically not affected”. Besides, the “interaction with HSA” value in data set [7] is reported as “no interaction”.
